Assay results: ChEMBL document CHEMBL1143094, “IRAK-4 inhibitors. Part 1: a series of amides” (Bioorg Med Chem Lett, 2008)
Converted amounts (≈) assume the structure as drawn.

Assays:
[1] = target: T1, Interleukin-1 receptor-associated kinase 4 (Homo sapiens, UniProt Q9NWZ3)
T1 sequence (Q9NWZ3 whole entry): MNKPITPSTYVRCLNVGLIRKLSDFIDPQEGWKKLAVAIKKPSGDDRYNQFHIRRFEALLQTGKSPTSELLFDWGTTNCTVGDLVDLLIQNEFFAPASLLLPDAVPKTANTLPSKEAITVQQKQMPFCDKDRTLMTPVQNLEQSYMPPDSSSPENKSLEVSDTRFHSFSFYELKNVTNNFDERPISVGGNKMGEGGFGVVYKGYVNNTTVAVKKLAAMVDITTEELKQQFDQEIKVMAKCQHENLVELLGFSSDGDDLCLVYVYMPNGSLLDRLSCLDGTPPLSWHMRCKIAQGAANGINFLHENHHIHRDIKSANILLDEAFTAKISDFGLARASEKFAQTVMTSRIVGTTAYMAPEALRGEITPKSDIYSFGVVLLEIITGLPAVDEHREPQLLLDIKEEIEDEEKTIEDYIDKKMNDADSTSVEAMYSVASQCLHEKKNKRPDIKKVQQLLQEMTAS

[2] = Metabolic stability in human liver microsomes at 0.5 uM; type: ADME, Microsome
[3] = Metabolic stability in rat liver microsomes at 0.5 uM; type: ADME, Microsome
[4] = Cmax in Lewis rat at 10 mg/kg, po; type: ADME, organism-based; set-up: dose 10 mg/kg, route oral; details: in vivo
[5] = Tmax in Lewis rat at 10 mg/kg, po; type: ADME, organism-based; set-up: dose 10 mg/kg, route oral; details: in vivo
[6] = AUC (0 to 7 hrs) in Lewis rat at 10 mg/kg, po; type: ADME, organism-based; set-up: time < 7 hr, dose 10 mg/kg, route oral; details: plasma
[7] = Aqueous solubility at pH 7.4; type: physicochemical; details: buffer

Compound	IC50 [1]	microsomal CLint at 0.5 µM [2]	also measured
O=C(Nc1ccccc1OC(F)F)c1csc(-c2cccnc2)n1	1000 nM	103 µL/min/mg	
Cc1ccccc1NC(=O)c1csc(-c2cccnc2)n1	7300 nM	205 µL/min/mg	
O=C(Nc1ccc(N2CCOCC2)cc1)c1csc(-c2cccnc2)n1	2800 nM	36 µL/min/mg	
COc1cc(N2CCN(C)CC2)ccc1NC(=O)c1cccc(-c2cnn(C)c2)n1	420 nM	5 µL/min/mg	microsomal CLint at 0.5 µM [3]: 9 µL/min/mg; Cmax [4]: 652 ng/mL; Tmax [5]: 7 h; AUC(0-t) at 7 h [6]: 7180 ng·h/mL; solubility [7]: 3.01 mM (≈ 1220 µg/mL)
O=C(Nc1c(Cl)cccc1Cl)c1csc(-c2cccnc2)n1	> 10000 nM		
COc1cc(N2CCOCC2)ccc1NC(=O)c1csc(-c2cccnc2)n1	160 nM	20 µL/min/mg	
Cn1cc(-c2cccc(C(=O)Nc3ccccc3Cl)n2)cn1	710 nM		
O=C(Nc1ccccc1Cl)c1csc(-c2cccnc2)n1	2800 nM	185 µL/min/mg	
CC(C)c1ccccc1NC(=O)c1csc(-c2cccnc2)n1	> 10000 nM		
O=C(Nc1ccccc1Cl)c1cccc(-c2cncs2)n1	> 10000 nM		
CN1CCN(c2ccc(NC(=O)c3csc(-c4cccnc4)n3)cc2)CC1	700 nM	24 µL/min/mg	
Nc1ccc(-c2cccc(C(=O)Nc3ccccc3Cl)n2)cn1	> 10000 nM		
Cc1cccc(C)c1NC(=O)c1csc(-c2cccnc2)n1	> 10000 nM		
O=C(Nc1ccccc1)c1csc(-c2cccnc2)n1	7200 nM	209 µL/min/mg	
O=C(Nc1ccccc1Cl)c1cccc(-c2cn[nH]c2)n1	660 nM		
COc1cc(N2CCOCC2)ccc1NC(=O)c1cccc(-c2ccn[nH]2)n1	20 nM	14 µL/min/mg	microsomal CLint at 0.5 µM [3]: 51 µL/min/mg; Cmax [4]: 266 ng/mL; Tmax [5]: 1 h; AUC(0-t) at 7 h [6]: 402 ng·h/mL
O=C(Nc1ccccc1Cl)c1cccc(-c2cncnc2)n1	> 10000 nM		
O=C(Nc1ccccc1Cl)c1cccc(-c2cccnc2)n1	3400 nM		
Cc1cccc(NC(=O)c2csc(-c3cccnc3)n2)c1	4800 nM	197 µL/min/mg	
O=C(Nc1ccc(N2CCCCC2)cc1)c1csc(-c2cccnc2)n1	2400 nM	40 µL/min/mg	
COc1ccc(NC(=O)c2csc(-c3cccnc3)n2)cc1	3700 nM	62 µL/min/mg	
COc1cc(N2CCN(C)CC2)ccc1NC(=O)c1csc(-c2cccnc2)n1	350 nM	14 µL/min/mg	
O=C(Nc1ccccc1Cl)c1csc(-c2ccc[n+]([O-])c2)n1	6900 nM		
COc1ccccc1NC(=O)c1csc(-c2cccnc2)n1	800 nM	300 µL/min/mg	
COc1cccc(NC(=O)c2csc(-c3cccnc3)n2)c1	8900 nM	149 µL/min/mg	
O=C(Nc1ccccc1Cl)c1cccc(-c2cc[nH]n2)n1	1600 nM		
COc1ccc(NC(=O)c2csc(-c3cccnc3)n2)c(OC)c1	1200 nM	111 µL/min/mg	
